How the values were obtained:
TRa2 [1] = assay: Glycosidase activity of TRa2 on sugars, TLC; assay type: biochemical, Trichoderma viride; conditions: 0.5% sugar, 20 mM acetate buffer pH 5.0, 50° C., 1 hour
Method: The culture supernatant (500 μl) was concentrated about 5-fold using Microcon YM-30 (Amicon). The above concentrate (10 μl) was added to 100 μl of 20 mM acetate buffer (pH 5.0) containing 0.5% maltose, maltotriose, maltotetraose, dextrin, α-cyclodextrin, β-cyclodextrin or γ-cyclodextrin, and reacted at 50° C. for 1 hour.
After completion of the reaction, each sample was analyzed by TLC as follows. The plate used was a silica gel G-60 plate (Merck & Co., Inc.), and the developing solution used was 2-propanol:acetone:0.5 M lactic acid=2:2:1. For detection, the plate was sprayed with sulfuric acid:ethanol=1:9, air-dried and then heated on a hot plate. As a result, none of the sugars was degraded in a culture solution of the control strain (strain C-1) transformed with vector pYE22m.

[2] = Heat stability of glycoside; assay type: physicochemical; conditions: 100 μM in 10 mM potassium phosphate buffer pH 7.0, 4° C. to 100° C., 0 to 4 hours
Method: After 10 mM potassium phosphate buffer (pH 7.0, 30 μl) containing 100 μM (+)-catechin or 4′-O-α-D-glucopyranosyl-(+)—catechin obtained in Example 4 was treated at different temperatures ranging from 4° C. to 100° C. for 0 to 4 hours, each sample was transferred on ice and mixed with 0.1% TFA (60 μl), followed by HPLC analysis in the same manner as shown in Example 1.

[3] = Solubility of glycoside in water; assay type: physicochemical
Method: (+)-Catechin or 5-O-α-D-glucopyranosyl-(+)-catechin obtained in Example 3 was added to water at different concentrations ranging from 10 to 450 mg/ml and dissolved by vigorous stirring, followed by centrifugation to remove precipitates. The supernatant was analyzed by HPLC to quantify the amounts of (+)-catechin and 5-O-α-D-glucopyranosyl-(+)-catechin. The same procedure was also repeated to study the solubility of (−)-epigallocatechin-3-β-gallate or 5-O-α-D-glucopyranosyl-(−)-epigallocatechin-3-O-gallate.

TRa2 [4] = assay: Substrate specificity: glycosylation of acceptor compounds with dextrin by crude TRa2 enzyme solution, HPLC; assay type: biochemical, Trichoderma viride; conditions: 0.5 mM or 10 mM glycosyl acceptor compound, 10 mg dextrin, pH 5.2, 45° C., 24 hr
Method: The strain TRa2-1 was cultured overnight at 30° C. with shaking in 10 ml YPD medium. After reaching the resting phase, the culture solution was inoculated into the same medium (2% (v/v)) and cultured with shaking at 30° C. for 3 days. After culturing, the supernatant was collected by centrifugation and concentrated 5-fold to give a crude enzyme solution of TRa2. The reaction was performed at 45° C. for 24 hr in 100 μl enzyme reaction solution containing 0.5 mM or 10 mM glycosyl acceptor compound ((+)-catechin, (−)-epigallocatechin-3-O-gallate, esculetin, naringenin, quercetin, daidzein, genistein or kaempferol), 10 mg dextrin, 100 mM acetate buffer (pH 5.2) and the crude enzyme solution, followed by HPLC analysis.

Cellulase “Onozuka” RS [5] = assay: Glycosyl donor selectivity 2: (+)-catechin, Cellulase “Onozuka” RS and each glycosyl donor, HPLC; assay type: biochemical, Trichoderma viride; conditions: substance as glycosyl donor (10 mg); (+)-catechin 3 mg; 50° C., 1 day, pH 5
Method: (+)-Catechin (3 mg) was mixed with Cellulase “Onozuka” RS (10 mg), each glycosyl donor (10 mg) and 0.1 M acetate buffer (100 μl, pH 5), followed by stirring at 50° C. for 1 day. The glycosyl donors used were maltose, maltotriose, maltotetraose, maltopentaose, maltohexaose, maltoheptaose and dextrin (Nacalai Tesque, Inc., Japan), as well as γ-cyclodextrin (Wako Pure Chemical Industries, Ltd., Japan). After the reaction, the centrifuged supernatant was diluted 10-fold and analyzed by HPLC.

Cellulase “Onozuka” RS [6] = assay: Glycosyl donor selectivity 1: (+)-catechin, Cellulase “Onozuka” RS and each glycosyl donor, HPLC; assay type: biochemical, Trichoderma viride; conditions: substance as glycosyl donor (20 mg); (+)-catechin 6 mg; 50° C., 1 day, pH 5
Method: (+)-Catechin (6 mg) was mixed with Cellulase “Onozuka” RS (20 mg), each glycosyl donor (20 mg) and 0.1 M acetate buffer (200 μl, pH 5), followed by stirring at 50° C. for 1 day. After the reaction, the centrifuged supernatant was diluted 10-fold and analyzed by HPLC. The glycosyl donors used were cellobiose (Sigma), dextran (Sigma), maltose (Nacalai Tesque, Inc., Japan), carboxymethylcellulose sodium (Nacalai Tesque, Inc., Japan), soluble starch (Nacalai Tesque, Inc., Japan), dextrin (Nacalai Tesque, Inc., Japan), isomaltooligosaccharide (Wako Pure Chemical Industries, Ltd., Japan), α-cyclodextrin (Wako Pure Chemical Industries, Ltd., Japan), γ-cyclodextrin (Wako Pure Chemical Industries, Ltd., Japan) and trehalose dihydrate (Nacalai Tesque, Inc., Japan).

| Compound | degradation of sugar in culture solution of strain TRa2-1 (TRa2 [1]) | area ratio (%) between acceptor compound and glycoside product (TRa2 [4]) [%] | Product (% area) 5-Glc (Cellulase “Onozuka” RS [5]) [% area] | Product (% area) 7-Glc (Cellulase “Onozuka” RS [5]) [% area] | other results |
| --- | --- | --- | --- | --- | --- |
| OC[C@H]1O[C@H](O[C@H]2[C@H](O)[C@@H](O)C(O)O[C@@H]2CO)[C@H](O)[C@@H](O)[C@@H]1O (mixture of isomers) [Maltose, maltose] | no degradation | – | – | – | – |
| OC[C@H]1O[C@H](Oc2ccc([C@H]3Oc4cc(O)cc(O)c4C[C@@H]3O)cc2O)[C@H](O)[C@@H](O)[C@@H]1O [4′-O-α-D-glucopyranosyl-(+)-catechin] | – | – | – | – | heat stability (% remaining) [2]: more stable against heat than catechin |
| OC[C@H]1O[C@H](Oc2cc(O)cc3c2C[C@H](O)[C@@H](c2ccc(O)c(O)c2)O3)[C@H](O)[C@@H](O)[C@@H]1O [5-O-α-D-glucopyranosyl-(+)-catechin] | – | – | – | – | solubility relative to (+)-catechin [3]: at least 40 fold |
| O=C(O[C@@H]1Cc2c(O[C@H]3O[C@H](CO)[C@@H](O)[C@H](O)[C@H]3O)cc(O)cc2O[C@@H]1c1cc(O)c(O)c(O)c1)c1cc(O)c(O)c(O)c1 [5-O-α-D-glucopyranosyl-(−)-epigallocatechin-3-O-gallate] | – | – | – | – | solubility compared to (−)-epigallocatechin-3-O-gallate ([3]; water): significantly increased solubility |
| Oc1cc(O)c2c(c1)O[C@H](c1ccc(O)c(O)c1)[C@@H](O)C2 [(+)-catechin] | – | 10 | – | – | water solubility [3]: substantially insoluble in water |
| OC[C@H]1O[C@H](O[C@H]2[C@H](O)[C@@H](O)[C@@H](O[C@H]3[C@H](O)[C@@H](O)[C@@H](O[C@H]4[C@H](O)[C@@H](O)C(O)O[C@@H]4CO)O[C@@H]3CO)O[C@@H]2CO)[C@H](O)[C@@H](O)[C@@H]1O (some centres unmarked) [Maltotetraose, maltotetraose] | degraded | – | 7.15 | 1.60 | – |
| O=c1c(-c2ccc(O)cc2)coc2cc(O)ccc12 [daidzein] | – | 10.7 | – | – | – |
| O=c1ccc2cc(O)c(O)cc2o1 [esculetin] | – | 3.5 | – | – | – |
| O=c1c(-c2ccc(O)cc2)coc2cc(O)cc(O)c12 [genistein] | – | 6.8 | – | – | – |
| O=c1c(O)c(-c2ccc(O)cc2)oc2cc(O)cc(O)c12 [kaempferol] | – | 3.1 | – | – | – |
| O=C1C[C@@H](c2ccc(O)cc2)Oc2cc(O)cc(O)c21 [naringenin] | – | 4.4 | – | – | – |
| O=c1c(O)c(-c2ccc(O)c(O)c2)oc2cc(O)cc(O)c12 [quercetin] | – | 9.4 | – | – | – |
| OC[C@H]1O[C@@H]2O[C@H]3[C@H](O)[C@@H](O)[C@@H](O[C@H]4[C@H](O)[C@@H](O)[C@@H](O[C@H]5[C@H](O)[C@@H](O)[C@@H](O[C@H]6[C@H](O)[C@@H](O)[C@@H](O[C@H]7[C@H](O)[C@@H](O)[C@@H](O[C@H]1[C@H](O)[C@H]2O)O[C@@H]7CO)O[C@@H]6CO)O[C@@H]5CO)O[C@@H]4CO)O[C@@H]3CO [α-Cyclodextrin, α-cyclodextrin] | no degradation | – | – | – | – |
| OC[C@H]1O[C@@H]2O[C@H]3[C@H](O)[C@@H](O)[C@@H](O[C@H]4[C@H](O)[C@@H](O)[C@@H](O[C@H]5[C@H](O)[C@@H](O)[C@@H](O[C@H]6[C@H](O)[C@@H](O)[C@@H](O[C@H]7[C@H](O)[C@@H](O)[C@@H](O[C@H]8[C@H](O)[C@@H](O)[C@@H](O[C@H]1[C@H](O)[C@H]2O)O[C@@H]8CO)O[C@@H]7CO)O[C@@H]6CO)O[C@@H]5CO)O[C@@H]4CO)O[C@@H]3CO [β-cyclodextrin] | no degradation | – | – | – | – |
| OC[C@H]1O[C@@H]2O[C@H]3[C@H](O)[C@@H](O)[C@@H](O[C@H]4[C@H](O)[C@@H](O)[C@@H](O[C@H]5[C@H](O)[C@@H](O)[C@@H](O[C@H]6[C@H](O)[C@@H](O)[C@@H](O[C@H]7[C@H](O)[C@@H](O)[C@@H](O[C@H]8[C@H](O)[C@@H](O)[C@@H](O[C@H]9[C@H](O)[C@@H](O)[C@@H](O[C@H]1[C@H](O)[C@H]2O)O[C@@H]9CO)O[C@@H]8CO)O[C@@H]7CO)O[C@@H]6CO)O[C@@H]5CO)O[C@@H]4CO)O[C@@H]3CO [γ-Cyclodextrin, γ-cyclodextrin] | degraded | – | 14.53 | 4.73 | Product (% area) 5-Glc (Cellulase “Onozuka” RS [6]): 14.69 % area; Product (% area) 7-Glc (Cellulase “Onozuka” RS [6]): 5.91 % area |
| (−)-epigallocatechin-3-O-gallate | – | 17.7 | – | – | – |
| maltoheptaose | – | – | 7.39 | 1.97 | – |
| maltohexaose | – | – | 7.89 | 2.06 | – |
| maltopentaose | – | – | 7.87 | 1.98 | – |
| maltotriose | degraded | – | 2.54 | 0.51 | – |

From patent publication US9364492B2, “Method for glycosylation of flavonoid compounds” (SUNTORY HOLDINGS LIMITED, priority 2007, dated 2016)
